Each compound was assayed on Ramos B-Cell Line Stimulated with IL-4 (JAK-1 and JAK-3 / Stat-6, CD23) (assay: Assay for Ramos B-Cell Line Stimulated with IL-4 (CD23 upregulation, FACS)). Details: Homo sapiens, Ramos, human Ramos B cells, compound 1 hour, IL-4 50 units/mL for 20-24 hours, anti-CD23-PE FACS; read-out: Example 2 (IC50).
Format: cell-based
In short: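 Human Ramos B cells (5×10^4 per point, RPMI with 5% serum) pre-incubated 1 hour at 37° C with compound or DMSO, then stimulated with IL-4 at 50 units/mL final for 20-24 hours. CD23 upregulation measured by flow cytometry.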

Going from `C#CCOc1ccc(Nc2nc(Nc3cccc(C(N)=S)c3)ncc2F)cc1` [Compound I-5, N2-(3-Aminocarbonothioylphenyl)-5-fluoro-N4-[4-(2-propynyloxy)phenyl]-2,4-pyrimidinediamine] to `C#CCOc1ccc(Nc2nc(Nc3ccc(C(N)=O)cc3)ncc2F)cc1` [Compound I-8, N2-(4-Aminocarbonylphenyl)-5-fluoro-N4-[4-(2-propynyloxy)phenyl]-2,4-pyrimidinediamine], the IC50 falls from 1150 nM to 118 nM (9.7-fold). The second is the more potent here.

Going from `N#CCOc1ccc(Nc2nc(Nc3ccc(CC#N)cc3)ncc2F)cc1F` [Compound I-103, N4-(4-Cyanomethoxy-3-fluorophenyl)-N2-(4-cyanomethylphenyl)-5-fluoro-2,4-pyrimidinediamine] to `N#CCOc1cccc(Nc2nc(Nc3ccc(CC#N)cc3)ncc2F)c1` [Compound I-66, N4-(3-Cyanomethoxyphenyl)-N2-(4-cyanomethylphenyl)-5-fluoro-2,4-pyrimidinediamine], the IC50 falls from 82.7 nM to 42.2 nM (2-fold).

`Cc1cc(Nc2nc(Nc3ccc(C(N)=O)cc3)ncc2F)ccc1OC(C)C#N` (centres unmarked) [Compound I-92, N2-(4-Aminocarbonylphenyl)-N4-[4-(1-cyanoethoxy)-3-methylphenyl]-5-fluoro-2,4-pyrimidinediamine] and `Cc1cc(Nc2nc(Nc3ccc(C(N)=O)cc3)ncc2F)cc(C)c1OC(C)C#N` (centres unmarked) [Compound I-95, N2-(4-Aminocarbonylphenyl)-N4-[4-(1-cyanoethoxy)-3,5-dimethylphenyl]-5-fluoro-2,4-pyrimidinediamine] are within 1.5-fold of each other in IC50: 127 nM for the first, 103 nM for the second.

Going from `NC(=O)c1ccc(Nc2ncc(F)c(Nc3cccc(-c4ncco4)c3)n2)cc1Cl` [Compound I-14, N2-(4-Aminocarbonyl-3-chlorophenyl)-5-fluoro-N4-[3-(oxazol-2-yl)phenyl]-2,4-pyrimidinediamine] to `N#CCc1ccc(Nc2nc(Nc3cccc(C(N)=O)c3)ncc2F)cc1` [Compound I-68, N2-(3-Aminocarbonylphenyl)-N4-(4-cyanomethylphenyl)-5-fluoro-2,4-pyrimidinediamine], the IC50 rises from 178 nM to 1620 nM (9.1-fold).

First: Cc1cc(Nc2nc(Nc3ccc(CC#N)cc3)ncc2F)cc(C)c1OCC#N [Compound I-89, N4-(4-Cyanomethoxy-3,5-dimethylphenyl)-N2-(4-cyanomethylphenyl)-5-fluoro-2,4-pyrimidinediamine]
Second: CCc1cc(Nc2ncc(F)c(Nc3ccc(OCC#N)cc3)n2)cc(C#N)c1Cl [Compound I-104, N2-(4-Chloro-3-cyano-5-ethylphenyl)-N4-(4-cyanomethoxyphenyl)-5-fluoro-2,4-pyrimidinediamine]
The IC50 of the first is 6.8-fold lower: 167 nM for the first, 1140 nM for the second.

Going from `N#CCOc1ccc(Nc2nc(Nc3ccc(C#N)cc3)ncc2F)cc1` [Compound I-29, N2-(4-Cyanophenyl)-N4-(4-cyanomethoxyphenyl)-5-fluoro-2,4-pyrimidinediamine] to `N#Cc1ccc(Nc2ncc(F)c(Nc3ccc(OCC(N)=O)cc3)n2)cc1` [Compound I-24, N4-(4-Aminocarbonylmethoxyphenyl)-N2-(4-cyanophenyl)-5-fluoro-2,4-pyrimidinediamine], the IC50 rises from 74.6 nM to 245 nM (3.3-fold). The first is the more potent here.

First: N#CCOc1ccc(Nc2nc(Nc3ccc(C(N)=O)cc3)ncc2F)cc1 [Compound I-27, N2-(4-Aminocarbonylphenyl)-N4-(4-cyanomethoxyphenyl)-5-fluoro-2,4-pyrimidinediamine]
Second: CN1CCN(C(=O)c2ccc(Nc3ncc(F)c(Nc4ccc(OCC(N)=O)cc4)n3)cc2)CC1 [Compound I-36, N4-(4-Aminocarbonylmethoxyphenyl)-5-fluoro-N2-[4-((4-methylpiperazin-1-yl)carbonyl)phenyl]-2,4-pyrimidinediamine]
The IC50 of the first is 580-fold lower: 5.21 nM for the first, 3020 nM for the second. The first is the more potent here.

First: CC1(C)Oc2ccc(Nc3nc(Nc4ccc5oc(C(=O)NCCN6CCOCC6)cc5c4)ncc3F)nc2NC1=O [Compound V-1, N4-[2,2-Dimethyl-3-oxo-4H-5-pyrido[1,4]oxazin-6-yl]-5-fluoro-N2-[2-(2-(N-morpholinyl)ethylaminocarbonyl)benzofuran-5-yl]-2,4-pyrimidinediamine]
Second: COc1cc(Nc2ncc(F)c(Nc3ccc4c(c3)NC(=O)C(C)(C)O4)n2)cc(OCC#N)c1OC [II-15, N2-(3-Cyanomethoxy-4,5-dimethoxyphenyl)-N4-(2,2-dimethyl-3-oxo-4H-benzo[1,4]oxazin-6-yl)-5-fluoro-2,4-pyrimidinediamine]
The IC50 of the first is 2.1-fold higher: 144 nM for the first, 69.3 nM for the second.

Compared with `N#CCc1ccc(Nc2ncc(F)c(Nc3ccc(F)c(Cl)c3)n2)cc1` [Compound I-117, N4-(3-Chloro-4-fluorophenyl)-N2-(4-cyanomethylphenyl)-5-fluoro-2,4-pyrimidinediamine], `CN1CCN(C(=O)c2cccc(Nc3ncc(F)c(Nc4ccc(OCC(N)=O)cc4)n3)c2)CC1` [Compound I-37, N4-(4-Aminocarbonylmethoxyphenyl)-5-fluoro-N2-[3-((4-methylpiperazin-1-yl)carbonyl)phenyl]-2,4-pyrimidinediamine] is 3-fold lower in IC50: 6710 nM for the first, 2240 nM for the second. The second is the more potent here.

First: Cc1nc(COc2ccc(Nc3nc(Nc4ccc(N5CCN(C)CC5)c(C(N)=O)c4)ncc3F)cc2)no1 [Compound I-62, N2-[3-Aminocarbonyl-4-(4-methylpiperazin-1-yl)phenyl]-5-fluoro-N4-[4-((5-methyl-1,2,4-oxadiazol-3-yl)methoxy)phenyl]-2,4-pyrimidinediamine]
Second: Cc1cnc(Nc2cccc(C(N)=O)c2)nc1Nc1ccc2c(c1)CCC(=O)N2C [II-28, N2-(3-Aminocarbonylphenyl)-5-methyl-N4-(1-methyl-2-oxo-1,2,3,4-tetrahydroquinolin-6-yl)-2,4-pyrimidinediamine]
The IC50 of the first is 11-fold lower: 80.5 nM for the first, 899 nM for the second. The first is the more potent here.

`Cc1cc(Nc2nc(Nc3cccc(C(N)=O)c3)ncc2F)cc(C)c1OC(C)C#N` (centres unmarked) [Compound I-96, N2-(3-Aminocarbonylphenyl)-N4-[4-(1-cyanoethoxy)-3,5-dimethylphenyl]-5-fluoro-2,4-pyrimidinediamine] gave an IC50 of 255 nM.

Same assay, conditions: human Ramos B cells, compound 1 hour, IL-4 50 units/mL for 20-24 hours, anti-CD23-PE FACS; read-out: Example 2 (IC50)

First: N2-(3-Cyanomethoxy-4,5-dimethoxyphenyl)-N4-(2,2-dimethyl-3-oxo-4H-5-pyrido[1,4]oxazin-6-yl)-5-fluoro-2,4-pyrimidinediamine [II-16]
Second: Cc1nc(COc2ccc(Nc3nc(Nc4ccc(C(=O)N5CCN(C)CC5)cc4)ncc3F)cc2)no1 [Compound I-60, 5-Fluoro-N4-[4-((5-methyl-1,2,4-oxadiazol-3-yl)methoxy)phenyl]-N2-[4-((4-methylpiperazin-1-yl)carbonyl)phenyl]-2,4-pyrimidinediamine]
The IC50 of the first is 2-fold lower: 213 nM for the first, 421 nM for the second. The first is the more potent here.

First: CNC(=O)COc1cc(Nc2ncc(C)c(Nc3ccc4c(n3)NC(=O)C(C)(C)O4)n2)cc(OC)c1OC [II-35, N2-[3,4-Dimethoxy-5-(N-methylaminocarbonylmethoxy)phenyl]-N4-(2,2-dimethyl-3-oxo-4H-5-pyrido[1,4]oxazin-6-yl)-5-methyl-2,4-pyrimidinediamine]
Second: Cc1cnc(Nc2cccc(C(N)=O)c2)nc1Nc1ccc2c(n1)NC(=O)C(C)(C)O2 [II-40, N2-(3-Aminocarbonylphenyl)-N4-(2,2-dimethyl-3-oxo-4H-5-pyrido[1,4]oxazin-6-yl)-5-methyl-2,4-pyrimidinediamine]
The IC50 of the first is 1.9-fold lower: 87.3 nM for the first, 163 nM for the second.

Compared with `CCN(CC)CCNC(=O)c1ccc(Nc2ncc(F)c(Nc3cccc(OCc4nc(C)no4)c3)n2)cc1` [Compound I-125, N2-[4-(2-(N,N-Diethylamino)ethylaminocarbonyl)phenyl]-5-fluoro-N4-[3-(3-methyl-1,2,4-oxadiazol-5-yl)methyleneoxyphenyl]-2,4-pyrimidinediamine], `CNC(=O)COc1cccc(Nc2ncc(F)c(Nc3ccc(Cc4ccncc4)cc3)n2)c1` [Compound I-132, 5-Fluoro-N2-[3-(N-methylaminocarbonylmethyleneoxy)phenyl]-N4-[4-(4-pyridinylmethyl)phenyl]-2,4-pyrimidinediamine] is 3.1-fold higher in IC50: 103 nM for the first, 322 nM for the second.

`Cc1noc(COc2cccc(Nc3nc(Nc4cccc(C(N)=O)c4)ncc3F)c2)n1` [Compound I-128, N2-(3-Aminocarbonylphenyl)-5-fluoro-N4-[3-((3-methyl-1,2,4-oxadiazol-5-yl)methyleneoxy)phenyl]-2,4-pyrimidinediamine] and “N4-(4-(1-Cyanoethoxy)-3,5-dimethyl phenyl]-5-fluoro-N2-[4-((4-methylpiperazin-1-yl)carbonyl)phenyl]-2,4-pyrimidinediamine [Compound I-98]” are within 1.5-fold of each other in IC50: 206 nM for the first, 276 nM for the second.

Going from `CC(C#N)Oc1ccc(Nc2nc(Nc3cccc(C#N)c3)ncc2F)cc1` (centres unmarked) [Compound I-80, N4-[4-(I-Cyanoethoxy)phenyl]-N2-(3-cyanophenyl)-5-fluoro-2,4-pyrimidinediamine] to `CN1CCN(C(=O)c2ccc(Nc3ncc(F)c(Nc4cccc(OCC#N)c4)n3)cc2)CC1` [Compound I-52, N4-(3-Cyanomethoxyphenyl)-5-fluoro-N2-[4-((4-methylpiperazin-1-yl)carbonyl)phenyl]-2,4-pyrimidinediamine], the IC50 rises from 189 nM to 289 nM (1.5-fold).

`CN1CCN(C(=O)c2ccc(Nc3ncc(F)c(Nc4cccc(OCC#N)c4)n3)cc2)CC1` [Compound I-53, N4-(3-Cyanomethoxyphenyl)-5-fluoro-N2-[4-((4-methylpiperazin-1-yl)carbonyl)phenyl]-2,4-pyrimidinediamine] and `Cc1noc(COc2ccc(N(C)c3nc(Nc4cccc(C#N)c4)ncc3F)cc2)n1` [Compound I-17, N2-(3-Cyanophenyl)-5-fluoro-N4-methyl-N4-[4-((3-methyl-1,2,4-oxadiazol-5-yl)methyleneoxy)phenyl]-2,4-pyrimidinediamine] are within 1.5-fold of each other in IC50: 1420 nM for the first, 1780 nM for the second.

Compared with `CNC(=O)COc1cc(Nc2ncc(F)c(Nc3ccc4c(n3)NC(=O)C(C)(C)O4)n2)cc(OC)c1OC` [II-21, N2-[4,5-Dimethoxy-3-(N-methylaminocarbonylmethyleneoxy)phenyl]-N4-(2,2-dimethyl-3-oxo-4H-5-pyrido[1,4]oxazin-6-yl)-5-fluoro-2,4-pyrimidinediamine], `CN1CCN(C(=O)c2ccc(Nc3ncc(F)c(Nc4ccc(CC#N)cc4)n3)cc2)CC1` [Compound I-73, N4-(4-Cyanomethylphenyl)-5-fluoro-N2-[4-((4-methylpiperazin-1-yl)carbonyl)phenyl]-2,4-pyrimidinediamine] is 13-fold higher in IC50: 130 nM for the first, 1730 nM for the second. The first is the more potent here.
